We go through one compound from patent US10632127B2, “Targeted notch pathway inhibitors” (Hoffmann-La Roche Inc., priority 2015, dated 2020).

A short description of series [1]: Pharmacokinetic assessment in male Wistar rats (i.v.). The class given is in vivo, rat. As for the experimental part:
For PK evaluation, the compounds were administered i.p to male C57BL/6 mice in suspension (gelatine/saline 7.5%/0.62% in water) using an administration volume of 4 mL/kg. Blood samples were collected in tubes containing EDTA, plasma was separated by centrifugation and stored at −80° C. Liver and kidney samples (˜100 mg aliquots) were homogenized in three volumes of water using Precellys tissue homogenization tubes (precellys.com). 25 μL of each tissue homogenate was further diluted with 25 μL blank plasma to produce the final tissue homogenate for extraction. All samples were analyzed using protein precipitation followed by LC-MS/MS analysis. Briefly, 50 μL plasma or final tissue homogenate were mixed with 50 μL 0.5M HClO4/acetonitrile 9/1 (containing 200 ng/mL internal standard bosentan). Samples were stirred and 300 μL water was added followed by centrifugation at 5600 rpm (4° C., 10 min). 10 μL supernatant was analyzed by LC/MS analysis. Calibration standards in plasma were prepared the same way. The LC column and conditions used were: Phenomenex, Polar RP, 4 μm, 50×2.1 mm at 0.4 mL/min flow rate with a 3 min gradient from 95% solvent A to 95% solvent B (Solvent A: Water/ACN/HCOOH, 90:10:0.1+10 mM NH4 formate; Solvent B: Water/ACN/HCOOH, 10:90:0.1+10 mM NH4 formate). Mass spectrometric conditions were: Thermo TSQ Vantage with positive heated electrospray ionization in MS/MS mode. Compounds mass transitions monitored were m/z 320.7 to 119.9. PK parameters for all studies were calculated using Phoenix WinNonlin Software.
We next determined the stability, tissue distribution and cleavage rate in plasma, liver and kidney of the designed prodrugs in male Wistar rats. In the in vivo screen, the kinetics and distribution of the prodrugs Ac-γ-Glu-SecrI (13a) and Ac-γ-Glu-O-SecrI (13c) were compared with the active γ-secretase inhibitor SecrI (8). After i.v. administration in male Wistar rats, the disappearance of the prodrugs and the formation of the active amine-SecrI (11a), amine-O-SecrI (11b) and SecrI (8) were compared in plasma, liver and kidney (Table 7A-C). First, we determined the pharmacokinetics (PK) behavior of SecrI (8) following i.v. administration (Table 7A). […] Liver and kidney exposure were much higher, with same exposure in liver and kidney. […] The selectivity towards kidney stayed constant over time. The carbonate analogue Ac-γ-Glu-O-SecrI (13c) prodrug was converted to a lower extent than the Ac-γ-Glu-SecrI (13a) to amine-O-SecrI (11b) but more to the linker free γ-secretase inhibitor 8 (Table 7C).
Plasma and tissue concentrations of administered compound (A-C) and formed amine-SecrI (11a), amine-O-SecrI (11b) or SecrI (8) (B-C) were determined following i.v. administration in rats (no standard deviation given due to sparse sampling; n≤3 rats per time point). Numbers in parentheses represent relative amounts with the exposure of kidney arbitrarily set at each time point to 100%. […] BQL=below quantifiable limit.

Series [2] has as its target Notch signal transduction pathway. Briefly: In vitro Notch signal transduction pathway activity assay (DR215/F2 luciferase reporter). The class given is cell-based, human. In outline:
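Human HEK293-derived DR215/F2 cells carrying Gal4-driven firefly luciferase and Notch-Gal4 fusion, exposed to compound in phenol-red-free complete IMDM at 37° C for 19 h. γ-secretase-dependent luciferase signal read with Steady-Glo; IC50 values are means of at least 3 experiments.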
For orientation: Reporter assays use an easily measured gene product as a stand-in for the process of interest.

Read-outs that look alike come from different tables or passages of the source.

For the compound `CC(=O)N[C@@H](CCC(=O)NCCNC(=O)OCCN1C(=O)[C@@H](NC(=O)[C@@](C)(O)C(=O)NCC(F)(F)C(F)(F)F)[C@@H](C)Oc2ccc(F)cc21)C(=O)O` [Compound 13a, (S)-2-acetamido-5-(2-((2-((2R,3S)-7-fluoro-3-((S)-2-hydroxy-2-methyl-3-oxo-3-(2,2,3,3,3-pentafluoropropylamino)propanamido)-2-methyl-4-oxo-3,4-dihydrobenzo[b][1,4]oxazepin-5(2H)-yl)ethoxy)carbonylamino)ethylamino)-5-oxopentanoic acid], the “Liver concentration of 13a” value in series [1] (13a 1.6 mg/kg i.v., 4 h) was “BQL”; in series [1] (13a 1.6 mg/kg i.v., 7 h), “BQL”. The “Plasma concentration of 13a” value in series [1] (13a 1.6 mg/kg i.v., 4 h) is given as “BQL”; in series [1] (13a 1.6 mg/kg i.v., 7 h), “BQL”. For the same compound, in series [1] (13a 1.6 mg/kg i.v., 7 h), the “Kidney concentration of 13a” value was “BQL”. Moreover, in series [1] (13a i.v., 0.25 h), the “conversion to amine-SecrI (11a), in words” value is listed as “high conversion”. Besides, the “conversion to the linker-free γ-secretase inhibitor 8, in words” value in series [1] (i.v.) was “never observed significant amounts”. For the same compound, the “plasma exposure, in words” value in series [1] (i.v.) was “low plasma exposure”. In addition, the “stability in plasma, in words” value in series [1] (i.v.) is “good stability in plasma”. Also, the concentration at 0.25 h was 188 ng/g in series [1] (rat, kidney, iv, 13a 1.6 mg/kg i.v., 0.25 h, read-out: Kidney concentration of 13a); 400 ng/g in series [1] (rat, liver, iv, 13a 1.6 mg/kg i.v., 0.25 h, read-out: Liver concentration of 13a); 295 ng/mL in series [1] (rat, plasma, iv, 13a 1.6 mg/kg i.v., 0.25 h, read-out: Plasma concentration of 13a). Besides, the concentration at 0.5 h in series [1] (rat, kidney, iv, 13a 1.6 mg/kg i.v., read-out: Kidney concentration of 13a) is 12.7 ng/g; in series [1] (rat, liver, iv, 13a 1.6 mg/kg i.v., read-out: Liver concentration of 13a), 33.4 ng/g; in series [1] (rat, plasma, iv, 13a 1.6 mg/kg i.v., read-out: Plasma concentration of 13a), 11.2 ng/mL. The compound further returned a concentration at 4 h in series [1] (rat, kidney, iv, 13a 1.6 mg/kg i.v., 4 h) of 16.6 ng/g. Moreover, the “IC50 for blockade of the Notch pathway, range in words” value in series [2] (DR215/F2 cell reporter assay) is “μM range”. The same compound yielded an IC50 in series [2] (Homo sapiens, 215/F2 reporter cell line, 19 h, mean of at least 3 experiments) of 2880 nM.

Usually IC50 stands for the concentration that gives 50% inhibition.
